ChEMBL document CHEMBL5352423, “Discovery of potent human dihydroorotate dehydrogenase inhibitors based on a benzophenone scaffold” (Eur J Med Chem, 2022)
pIC50: −log10 of the molar value. ≈ marks a conversion by molar mass, not a printed value. Calls of active or inactive are those of the source. The calls are words filed in the database; no cut-off is given here.

Assays:
[1] = Toxicity in BALB/c mouse assessed as change in blood PLT administered at 500 mg/kg, po for 14 days; type: organism-based; conditions: in vivo, 336 h, time 14 day
[2] = test system: HCT-116; experiment: Antitumor activity against human HCT-116 cells xenografted in NOD-SCID mouse assessed as tumor growth inhibition at 30 mg/kg, po administered for 24 days relative to control; type: functional; conditions: HCT-116, 576 h, time 24 day, read-out: TGI
[3] = test system: HCT-116; experiment: Induction of cell cycle arrest in human HCT-116 cells assessed as accumulation cells in S-phase at 0.25 uM for 24 hrs by PI/RNAse staining method (reference value: 30.2%); type: functional
[4] = Toxicity in BALB/c mouse assessed as change in blood lymphocytes administered at 500 mg/kg, po for 14 days; type: organism-based, Lymphocyte; conditions: in vivo, 336 h, time 14 day
[5] = Toxicity in BALB/c mouse assessed as decrease in alkaline phosphatase administered at 500 mg/kg, po for 14 days; type: organism-based; conditions: in vivo, 336 h, time 14 day
[6] = Aqueous solubility of compound; type: physicochemical; conditions: buffer
[7] = test system: Raji; experiment: Induction of cell cycle arrest in human Raji cells assessed as accumulation cells in S-phase at 0.25 uM for 24 hrs by PI/RNAse staining method (reference value: 42.8%); type: functional
[8] = Toxicity in BALB/c mouse assessed as change in blood MCH administered at 500 mg/kg, po for 14 days; type: organism-based; conditions: in vivo, 336 h, time 14 day
[9] = Toxicity in BALB/c mouse assessed as histopathological changes in kidney administered at 500 mg/kg, po for 14 days; type: organism-based; conditions: in vivo, 336 h, time 14 day
[10] = test system: Raji; experiment: Antiproliferative activity against human Raji cells assessed as inhibition of cell growth at 0.1 uM relative to control; type: functional
[11] = test system: KG-1; experiment: Antiproliferative activity against human KG-1 cells incubated for 96 hrs by MTT assay; type: functional, cell-based; conditions: KG-1, 96 h
[12] = test system: HCT-116; experiment: Antiproliferative activity against human HCT-116 cells incubated for 96 hrs by MTT assay; type: functional, cell-based; conditions: HCT-116, 96 h
[13] = biological target: T1, Dihydroorotate dehydrogenase (quinone), mitochondrial (Homo sapiens, UniProt Q02127); experiment: Inhibition of human DHODH at 1 uM for 30 mins relative to control
[14] = test system: Raji; experiment: Antiproliferative activity against human Raji cells assessed as inhibition of cell growth; type: functional, cell-based; conditions: dose 0.0125-0.2 µM
[15] = test system: Raji; experiment: Antiproliferative activity against human Raji cells incubated for 96 hrs by MTT assay; type: functional, cell-based
[16] = test system: HCT-116; experiment: Induction of cell cycle arrest in human HCT-116 cells assessed as accumulation cells in S-phase at 0.0625 uM for 24 hrs by PI/RNAse staining method (reference value: 30.2%); type: functional
[17] = biological target: T1, Dihydroorotate dehydrogenase (quinone), mitochondrial; experiment: Inhibition of human DHODH incubated for 30 mins
[18] = Toxicity in BALB/c mouse assessed as change in blood MCV administered at 500 mg/kg, po for 14 days; type: organism-based; conditions: in vivo, 336 h, time 14 day
[19] = Toxicity in NOD-SCID mouse xenografted with human Raji cells assessed as change in body weight at 30 mg/kg, po administered for 24 days; type: organism-based; conditions: in vivo, 576 h, time 24 day
[20] = test system: HCT-116; experiment: Induction of cell cycle arrest in human HCT-116 cells assessed as accumulation cells in S-phase at 0.125 uM for 24 hrs by PI/RNAse staining method (reference value: 30.2%); type: functional
[21] = test system: Raji; experiment: Antiproliferative activity against human Raji cells assessed as inhibition of cell growth at 0.2 uM relative to control; type: functional
[22] = Toxicity in BALB/c mouse assessed as change in blood RBC administered at 500 mg/kg, po for 14 days; type: organism-based; conditions: in vivo, 336 h, time 14 day
[23] = Toxicity in BALB/c mouse assessed as change in blood HCT administered at 500 mg/kg, po for 14 days; type: organism-based; conditions: in vivo, 336 h, time 14 day
[24] = test system: Raji; experiment: Induction of cell cycle arrest in human Raji cells assessed as accumulation cells in S-phase at 0.0625 uM for 24 hrs by PI/RNAse staining method (reference value: 42.8%); type: functional
[25] = biological target: T1, Dihydroorotate dehydrogenase (quinone), mitochondrial; experiment: Inhibition of human DHODH at 100 nM for 30 mins relative to control
[26] = Cytotoxicity against human NCM460 cells incubated for 96 hrs by MTT assay; type: toxicity, cell-based
[27] = test system: Kasumi 1; experiment: Antiproliferative activity against human Kasumi 1 cells incubated for 96 hrs by MTT assay; type: functional, cell-based; conditions: Kasumi 1, 96 h
[28] = test system: Raji; experiment: Rescue of cell viability in human Raji cells assessed cell growth inhibition rate at 0.0125 to 0.2 uM in presence of uridine; type: functional; conditions: dose 0.0125-0.2 µM
[29] = test system: HCT-116; experiment: Antiproliferative activity against human HCT-116 cells assessed as inhibition of cell growth at 0.0125 to 0.2 uM; type: functional, cell-based; conditions: dose 0.0125-0.2 µM
[30] = test system: Raji; experiment: Antitumor activity against human Raji cells xenografted in NOD-SCID mouse assessed as tumor growth inhibition at 30 mg/kg, po administered for 24 days relative to control; type: functional; conditions: 576 h, time 24 day, read-out: TGI
[31] = Toxicity in BALB/c mouse assessed as histopathological changes in spleen administered at 500 mg/kg, po for 14 days; type: organism-based; conditions: in vivo, 336 h, time 14 day
[32] = Toxicity in BALB/c mouse assessed as change in blood neutrophil administered at 500 mg/kg, po for 14 days; type: organism-based; conditions: in vivo, 336 h, time 14 day
[33] = test system: SUD4; experiment: Antiproliferative activity against human SU-DHL-4 cells incubated for 96 hrs by MTT assay; type: functional, cell-based; conditions: SU-DHL-4, 96 h
[34] = test system: Raji; experiment: Antiproliferative activity against human Raji cells assessed as inhibition of cell growth at 0.05 uM relative to control; type: functional
[35] = Toxicity in NOD-SCID mouse xenografted with human Raji cells assessed as death at 30 mg/kg, po administered for 24 days; type: organism-based; conditions: in vivo, 576 h, time 24 day
[36] = test system: Raji; experiment: Induction of cell cycle arrest in human Raji cells assessed as accumulation cells in S-phase at 0.125 uM for 24 hrs by PI/RNAse staining method (reference value: 42.8%); type: functional
[37] = Toxicity in BALB/c mouse assessed as lethal dose administered orally for 14 days; conditions: in vivo, route po, time 14 day
[38] = Cytotoxicity against human HCoEpiC cells incubated for 96 hrs by MTT assay; type: toxicity, cell-based
[39] = Toxicity in BALB/c mouse assessed as change in blood MPV administered at 500 mg/kg, po for 14 days; type: organism-based; conditions: in vivo, 336 h, time 14 day
[40] = Toxicity in BALB/c mouse assessed as histopathological changes in lung administered at 500 mg/kg, po for 14 days; type: organism-based; conditions: in vivo, 336 h, time 14 day
[41] = test system: A-375; experiment: Antiproliferative activity against human A-375 cells incubated for 96 hrs by MTT assay; type: functional, cell-based; conditions: A-375, 96 h
[42] = Cytotoxicity against human HL7702 cells incubated for 96 hrs by MTT assay; type: toxicity, cell-based, L02
[43] = Toxicity in BALB/c mouse assessed as change in blood WBC administered at 500 mg/kg, po for 14 days; type: organism-based; conditions: in vivo, 336 h, time 14 day
[44] = Toxicity in BALB/c mouse assessed as change in blood RDW administered at 500 mg/kg, po for 14 days; type: organism-based; conditions: in vivo, 336 h, time 14 day
[45] = biological target: Voltage-gated inwardly rectifying potassium channel KCNH2 (Homo sapiens, UniProt Q12809); experiment: Inhibition of human ERG; type: toxicity
[46] = test system: Raji; experiment: Antiproliferative activity against human Raji cells assessed as inhibition of cell growth at 0.025 uM relative to control; type: functional
[47] = Toxicity in BALB/c mouse assessed as change in blood MCHC administered at 500 mg/kg, po for 14 days; type: organism-based; conditions: in vivo, 336 h, time 14 day
[48] = Lipophilicity, logP of compound; type: physicochemical; conditions: octanol/water
[49] = test system: Raji; experiment: Antiproliferative activity against human Raji cells assessed as inhibition of cell growth at 0.0125 uM relative to control; type: functional
[50] = Toxicity in BALB/c mouse assessed as histopathological changes in liver administered at 500 mg/kg, po for 14 days; type: organism-based; conditions: in vivo, 336 h, time 14 day
[51] = Selectivity index ratio of IC50 for human HL7702 cells to IC50 for human Raji cells; type: toxicity; conditions: HL7702 cells and Raji cells, read-out: Ratio IC50
[52] = test system: U-937; experiment: Antiproliferative activity against human U-937 cells incubated for 96 hrs by MTT assay; type: functional, cell-based; conditions: U-937, 96 h
[53] = Toxicity in BALB/c mouse assessed as change in blood HGB administered at 500 mg/kg, po for 14 days; type: organism-based; conditions: in vivo, 336 h, time 14 day
[54] = Toxicity in NOD-SCID mouse xenografted with human HCT-116 cells assessed as change in body weight at 1.5 mg/kg, po administered for 24 days; type: organism-based; conditions: in vivo, 576 h, time 24 day
[55] = test system: HCT-116; experiment: Antitumor activity against human HCT-116 cells xenografted in NOD-SCID mouse assessed as tumor growth inhibition at 1.5 mg/kg, po administered for 24 days relative to control; type: functional; conditions: HCT-116, 576 h, time 24 day, read-out: TGI
[56] = test system: Raji; experiment: animal or person; conditions: Mus musculus, po, 576 h, read-out: TGI
Description: Antitumor activity against human Raji cells xenografted in NOD-SCID mouse assessed as tumor growth inhibition at 1.5 mg/kg, po administered for 24 days relative to control

[57] = Toxicity in NOD-SCID mouse xenografted with human Raji cells assessed as change in body weight at 1.5 mg/kg, po administered for 24 days; type: organism-based; conditions: in vivo, 576 h, time 24 day
[58] = test system: Mus musculus; experiment: Immunosuppressive activity in NOD-SCID mouse xenografted with human HCT-116 cells at 1.5 mg/kg, po for 21 days; type: functional, organism-based; conditions: time 21.0 day
[59] = Toxicity in NOD-SCID mouse xenografted with human HCT-116 cells assessed as splenomegaly at 1.5 mg/kg, po administered for 21 days; type: organism-based; conditions: in vivo, 504 h, time 21 day
[60] = Toxicity in NOD-SCID mouse xenografted with human Raji cells assessed as death at 1.5 mg/kg, po administered for 24 days; type: organism-based; conditions: in vivo, 576 h, time 24 day

T1 sequence (Q02127 whole entry): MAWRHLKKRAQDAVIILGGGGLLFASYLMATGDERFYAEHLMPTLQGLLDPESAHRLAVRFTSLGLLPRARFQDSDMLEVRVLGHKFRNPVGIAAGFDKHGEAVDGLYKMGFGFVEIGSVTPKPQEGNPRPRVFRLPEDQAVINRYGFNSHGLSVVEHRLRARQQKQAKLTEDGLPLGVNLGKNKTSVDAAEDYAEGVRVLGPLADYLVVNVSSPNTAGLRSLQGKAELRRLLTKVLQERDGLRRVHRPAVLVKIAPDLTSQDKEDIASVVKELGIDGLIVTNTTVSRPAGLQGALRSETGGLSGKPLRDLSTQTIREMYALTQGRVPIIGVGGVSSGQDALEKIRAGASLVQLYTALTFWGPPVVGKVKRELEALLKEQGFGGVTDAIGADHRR
Voltage-gated inwardly rectifying potassium channel KCNH2, sequence (Q12809 whole entry): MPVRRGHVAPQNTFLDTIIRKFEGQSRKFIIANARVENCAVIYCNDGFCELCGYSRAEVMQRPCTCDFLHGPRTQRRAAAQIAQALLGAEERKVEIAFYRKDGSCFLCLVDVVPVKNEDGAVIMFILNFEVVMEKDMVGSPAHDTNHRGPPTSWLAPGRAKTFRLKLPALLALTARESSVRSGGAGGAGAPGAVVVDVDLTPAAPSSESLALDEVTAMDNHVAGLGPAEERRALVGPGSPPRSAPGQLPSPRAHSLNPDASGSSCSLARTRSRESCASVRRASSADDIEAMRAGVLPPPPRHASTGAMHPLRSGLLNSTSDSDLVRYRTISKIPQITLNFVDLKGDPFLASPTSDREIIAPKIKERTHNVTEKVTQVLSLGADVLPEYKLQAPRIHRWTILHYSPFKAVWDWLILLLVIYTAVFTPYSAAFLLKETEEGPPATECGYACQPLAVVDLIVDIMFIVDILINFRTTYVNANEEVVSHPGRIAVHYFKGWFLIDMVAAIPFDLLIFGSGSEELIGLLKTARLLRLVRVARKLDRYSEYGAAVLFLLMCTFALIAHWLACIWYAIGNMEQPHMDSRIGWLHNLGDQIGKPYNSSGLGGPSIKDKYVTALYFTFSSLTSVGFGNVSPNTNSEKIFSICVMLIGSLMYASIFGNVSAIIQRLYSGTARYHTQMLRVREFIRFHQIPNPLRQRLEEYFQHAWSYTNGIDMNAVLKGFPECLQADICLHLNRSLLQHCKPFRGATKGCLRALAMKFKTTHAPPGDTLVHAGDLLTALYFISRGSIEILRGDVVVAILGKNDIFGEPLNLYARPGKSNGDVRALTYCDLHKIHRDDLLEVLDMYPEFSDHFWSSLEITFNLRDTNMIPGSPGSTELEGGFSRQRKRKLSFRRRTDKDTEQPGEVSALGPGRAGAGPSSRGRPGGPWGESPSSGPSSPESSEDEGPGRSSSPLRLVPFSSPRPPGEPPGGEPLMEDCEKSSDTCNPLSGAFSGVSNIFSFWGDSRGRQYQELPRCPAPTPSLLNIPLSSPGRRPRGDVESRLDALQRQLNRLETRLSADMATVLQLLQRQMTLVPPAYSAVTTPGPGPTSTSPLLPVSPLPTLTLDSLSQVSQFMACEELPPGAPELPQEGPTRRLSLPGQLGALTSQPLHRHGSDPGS

## C/C(O)=C(\C#N)C(=O)Nc1cc(O[C@@H](C)C(F)(F)F)c(C(=O)c2ccccc2Cl)cc1F
[1]
  Activity: Non-Toxic
[2]
  inhibition in vivo at 30 mg/kg: 42.1%
[3]
  Activity: 60.6%
[4]
  Activity: Non-Toxic
[5]
  Activity: Non-Toxic
[6]
  solubility: 61.7 µg/mL (≈ 131 µM)
[7]
  Activity: 67.1%
[8]
  Activity: Non-Toxic
[9]
  Activity: Non-Toxic
[10]
  inhibition at 0.1 µM: 52.2%
[11]
  pIC50: 6.37
[12]
  pIC50: 6.85
[13]
  inhibition: 98.4%
[14]
  inhibition: Dose-Dependent Effect
[15]
  pIC50: 7.22
[16]
  Activity: 44.6%
[17]
  pIC50: 7.96
[18]
  Activity: Non-Toxic
[19]
  Activity: Non-Toxic
[20]
  Activity: 58.9%
[21]
  inhibition at 0.2 µM: 60.9%
[22]
  Activity: Non-Toxic
[23]
  Activity: Non-Toxic
[24]
  Activity: 54.2%
[25]
  inhibition: 84.2%
[26]
  IC50 at 96 h: 14200 nM
[27]
  pIC50: 7.00
[28]
  inhibition (INH): <5%
[29]
  Activity: Active
[30]
  inhibition in vivo at 30 mg/kg: 58.3%
[31]
  Activity: Non-Toxic
[32]
  Activity: Non-Toxic
[33]
  pIC50: 6.12
[34]
  inhibition at 0.05 µM: 36.8%
[35]
  Activity: Non-Toxic
[36]
  Activity: 60.6%
[37]
  LD50 at 336 h: 500 mg/kg
[38]
  IC50 at 96 h: 6800 nM
[39]
  Activity: Non-Toxic
[40]
  Activity: Non-Toxic
[41]
  pIC50: 6.60
[42]
  IC50 at 96 h: 1100 nM
[43]
  Activity: Non-Toxic
[44]
  Activity: Non-Toxic
[45]
  pIC50: < 4.00
[46]
  inhibition at 0.025 µM: 20.7%
[47]
  Activity: Non-Toxic
[48]
  logP: 2.49
[49]
  inhibition at 0.0125 µM: 17%
[50]
  Activity: Toxic
[51]
  selectivity ratio: 18.3
[52]
  pIC50: 6.66
[53]
  Activity: Non-Toxic

## CCn1c(CO)nn(-c2cc(O[C@@H](C)C(F)(F)F)c(C(=O)Nc3c(F)cccc3Cl)cc2F)c1=O
[54]
  Activity: Toxic
[55]
  inhibition in vivo at 1.5 mg/kg: 44.4%
[56]
  inhibition in vivo at 1.5 mg/kg: 71.4%
[57]
  Activity: Non-Toxic
[58]
  Activity: Active
[59]
  Activity: Toxic
[60]
  Activity: Non-Toxic
